Source: ChEMBL document CHEMBL4417631, “Oral peptide inhibitors of interleukin-23 receptor and their use to treat inflammatory bowel diseases” (2017)
*1 amine or outer side, *2 acyl side, *3 side chain or, on linkers, in order; H or OH if unused. Where a SMILES comes first, the peptide text is derived from it. Bridges are numbered along the chain shown (N, C = ends). [ ]: non-standard residue; d: D form. Abu(4-yl) = O=C([C@H](CC[*:3])N[*:1])[*:2]; 2Nal = N[C@@H](Cc1ccc2ccccc2c1)C(=O)O; AEF = NCCOc1ccc(C[C@H](N)C(=O)O)cc1; αMeK = C[C@](N)(CCCCN)C(=O)O

Tests used:
[1] = molecular target: T1, Interleukin-23 receptor (Homo sapiens, UniProt Q5VWK5); assay: Inhibition of interleukin-23 binding to human interleukin-23 receptor incubated for 2 hrs by competitive binding ELISA
T1 sequence (Q5VWK5 whole entry): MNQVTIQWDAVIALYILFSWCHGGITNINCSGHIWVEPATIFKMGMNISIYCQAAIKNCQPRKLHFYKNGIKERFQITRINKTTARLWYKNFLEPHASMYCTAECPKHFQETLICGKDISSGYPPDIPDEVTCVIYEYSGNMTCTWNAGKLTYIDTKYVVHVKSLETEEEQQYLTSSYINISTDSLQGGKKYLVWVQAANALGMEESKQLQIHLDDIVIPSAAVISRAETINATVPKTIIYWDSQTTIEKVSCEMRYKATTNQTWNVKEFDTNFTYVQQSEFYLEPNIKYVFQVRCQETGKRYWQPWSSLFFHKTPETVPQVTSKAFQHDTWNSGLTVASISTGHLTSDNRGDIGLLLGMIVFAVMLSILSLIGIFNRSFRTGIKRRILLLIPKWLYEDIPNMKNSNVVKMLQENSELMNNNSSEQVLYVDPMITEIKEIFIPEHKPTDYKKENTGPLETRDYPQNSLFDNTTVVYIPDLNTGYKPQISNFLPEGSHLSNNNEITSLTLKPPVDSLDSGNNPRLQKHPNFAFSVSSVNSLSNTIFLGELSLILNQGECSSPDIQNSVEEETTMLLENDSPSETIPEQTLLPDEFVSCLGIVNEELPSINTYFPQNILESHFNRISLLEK

[2] = molecular target: T1, Interleukin-23 receptor; assay: Inhibition of interleukin-23 receptor in human DB cells assessed as reduction in IL-23-stimulated STAT3 phosphorylation incubated for 30 mins by HTRF assay; type: cell-based
[3] = Half life in simulated gastric fluid at 20 uM by LC-MS/MS analysis; type: ADME
[4] = Half life in simulated intestinal fluid at 20 uM by LC-MS/MS analysis; type: ADME

IC50 [1] [nM]	IC50 [2] [nM]	half-life at 20 µM [3] [h]	half-life at 20 µM [4] [h]	Structure (SMILES)
10 to 25	< 10	> 6	> 6	CC(=O)NCCCC[C@](C)(NC(=O)[C@H](Cc1ccc2ccccc2c1)NC(=O)[C@H](Cc1ccc(OCCNC(C)=O)cc1)NC(=O)[C@@H](NC(=O)[C@H](CCC(N)=O)NC(=O)[C@H](Cc1c[nH]c2ccccc12)NC(=O)[C@@H](NC(=O)[C@H](CNC(C)=O)NC(=O)[C@@H](NC(C)=O)C(C)(C)S)[C@@H](C)O)C(C)(C)S)C(=O)N[C@@H](CCC(=O)O)C(=O)N[C@@H](CC(N)=O)C(=O)NCC(N)=O
< 10	< 10	3 to 6	2 to 3	CC(=O)NCCCC[C@H](NC(=O)C(C)(C)NC(=O)[C@H](Cc1ccc2ccccc2c1)NC(=O)[C@H](Cc1ccc(OCCN)cc1)NC(=O)[C@@H](NC(=O)[C@H](CCC(N)=O)NC(=O)[C@H](Cc1c[nH]c2ccccc12)NC(=O)[C@@H](NC(=O)[C@H](CCC(N)=O)NC(=O)[C@@H](NC(C)=O)C(C)(C)S)[C@@H](C)O)C(C)(C)S)C(=O)N[C@@H](CC(N)=O)C(=O)N[C@@H](CC(N)=O)C(N)=O
< 10	< 10	> 6	> 6	CC(=O)N[C@H](C(=O)N[C@@H](CCC(N)=O)C(=O)N[C@H](C(=O)N[C@@H](Cc1c[nH]c2ccccc12)C(=O)N[C@@H](CCC(N)=O)C(=O)N[C@H](C(=O)N[C@@H](Cc1ccc(OCCN)cc1)C(=O)N[C@@H](Cc1ccc2ccccc2c1)C(=O)NC(C)(C)C(=O)N[C@@H](CCC(=O)O)C(=O)N[C@@H](CC(N)=O)C(=O)N[C@@H](CC(N)=O)C(N)=O)C(C)(C)S)[C@@H](C)O)C(C)(C)S
< 10	< 10	3 to 6	3 to 6	CC(=O)N[C@H]1CCSC[C@@H](C(=O)N[C@@H](Cc2ccc(OCCN)cc2)C(=O)N[C@@H](Cc2ccc3ccccc3c2)C(=O)N[C@@](C)(CCCCN)C(=O)N[C@@H](CC(N)=O)C(=O)N[C@@H](CC(N)=O)C(=O)NCC(N)=O)NC(=O)[C@H](CCC(N)=O)NC(=O)[C@H](Cc2c[nH]c3ccccc23)NC(=O)[C@H]([C@@H](C)O)NC(=O)[C@H](CCC(N)=O)NC1=O (Ac-[Abu(4-yl)]QTWQC[AEF][2Nal][αMeK]NNG-NH2; thioether 1-6)
	10 to 25	< 1	< 1	CC(=O)N[C@H](C(=O)N[C@@H](CCC(N)=O)C(=O)N[C@H](C(=O)N[C@@H](Cc1c[nH]c2ccccc12)C(=O)N[C@@H](CCC(N)=O)C(=O)N[C@H](C(=O)N[C@@H](Cc1ccc(OCCN)cc1)C(=O)N[C@@H](Cc1ccc2ccccc2c1)C(=O)N[C@@H](CCC(C)C)C(=O)N[C@@H](CCC(=O)O)C(=O)N[C@@H](CC(N)=O)C(=O)N[C@@H](C)C(N)=O)C(C)(C)S)[C@@H](C)O)C(C)(C)S
	< 10	> 6	> 6	CC(=O)NCCCC[C@H](NC(=O)C(C)(C)NC(=O)[C@H](Cc1ccc2ccccc2c1)NC(=O)[C@H](Cc1ccc(OCCN)cc1)NC(=O)[C@@H](NC(=O)[C@H](CCC(N)=O)NC(=O)[C@H](Cc1c[nH]c2ccccc12)NC(=O)[C@@H](NC(=O)[C@H](CCC(N)=O)NC(=O)[C@@H](NC(C)=O)C(C)(C)S)[C@@H](C)O)C(C)(C)S)C(=O)N[C@@H](CC(N)=O)C(=O)NCCC(N)=O
	< 10	> 6	> 6	CC(=O)NCCCC[C@H](NC(=O)C(C)(C)NC(=O)[C@H](Cc1ccc2ccccc2c1)NC(=O)[C@H](Cc1ccc(OCCN)cc1)NC(=O)[C@@H](NC(=O)[C@H](CCC(N)=O)NC(=O)[C@H](Cc1c[nH]c2ccccc12)NC(=O)[C@@H](NC(=O)[C@H](CC(N)=O)NC(=O)[C@@H](NC(C)=O)C(C)(C)S)[C@@H](C)O)C(C)(C)S)C(=O)N[C@@H](CC(N)=O)C(=O)N[C@@H](C)C(N)=O
	< 10	> 6	2 to 3	COc1ccc(C[C@H](NC(=O)[C@@H](NC(=O)[C@H](CCC(N)=O)NC(=O)[C@H](Cc2c[nH]c3ccccc23)NC(=O)[C@@H](NC(=O)[C@H](CC(N)=O)NC(=O)[C@@H](NC(C)=O)C(C)(C)S)[C@@H](C)O)C(C)(C)S)C(=O)N[C@@H](Cc2ccc3ccccc3c2)C(=O)NC(C)(C)C(=O)N[C@@H](CCC(=O)O)C(=O)N[C@@H](CC(N)=O)C(=O)N[C@@H](CC(N)=O)C(N)=O)cc1
	< 10	> 6	2 to 3	COc1ccc(C[C@H](NC(=O)[C@@H](NC(=O)[C@H](CCC(N)=O)NC(=O)[C@H](Cc2c[nH]c3ccccc23)NC(=O)[C@@H](NC(=O)[C@H](CCC(N)=O)NC(=O)[C@@H](NC(C)=O)C(C)(C)S)[C@@H](C)O)C(C)(C)S)C(=O)N[C@@H](Cc2ccc3ccccc3c2)C(=O)NC(C)(C)C(=O)N[C@@H](CCC(=O)O)C(=O)N[C@@H](CC(N)=O)C(=O)N[C@@H](CC(N)=O)C(N)=O)cc1
	< 10	> 6	3 to 6	CC[C@H](NC(=O)[C@H](CC(N)=O)NC(=O)[C@H](CCCCNC(C)=O)NC(=O)C(C)(C)NC(=O)[C@H](Cc1ccc2ccccc2c1)NC(=O)[C@H](Cc1ccc(OC)cc1)NC(=O)[C@@H](NC(=O)[C@H](CCC(N)=O)NC(=O)[C@H](Cc1c[nH]c2ccccc12)NC(=O)[C@@H](NC(=O)[C@H](CC(N)=O)NC(=O)[C@@H](NC(C)=O)C(C)(C)S)[C@@H](C)O)C(C)(C)S)C(N)=O
	< 10	< 1	< 1	COc1ccc(C[C@H](NC(=O)[C@@H](NC(=O)[C@H](CCC(N)=O)NC(=O)[C@H](Cc2c[nH]c3ccccc23)NC(=O)[C@@H](NC(=O)[C@H](CC(N)=O)NC(=O)[C@@H](NC(C)=O)C(C)(C)S)[C@@H](C)O)C(C)(C)S)C(=O)N[C@@H](Cc2ccc3ccccc3c2)C(=O)N[C@@H](CCC(C)C)C(=O)N[C@@H](CCCCNC(C)=O)C(=O)N[C@@H](CC(N)=O)C(=O)NCCC(N)=O)cc1
	< 10	> 6	3 to 6	COc1ccc(C[C@H](NC(=O)[C@@H](NC(=O)[C@H](CCC(N)=O)NC(=O)[C@H](Cc2c[nH]c3ccccc23)NC(=O)[C@@H](NC(=O)[C@H](CCC(N)=O)NC(=O)[C@@H](NC(C)=O)C(C)(C)S)[C@@H](C)O)C(C)(C)S)C(=O)N[C@@H](Cc2ccc3ccccc3c2)C(=O)NC(C)(C)C(=O)N[C@@H](CCCCNC(C)=O)C(=O)N[C@@H](CC(N)=O)C(=O)N[C@@H](CC(N)=O)C(N)=O)cc1
	< 10	< 1	< 1	CC(=O)NCCCC[C@H](NC(=O)[C@H](CCC(C)C)NC(=O)[C@H](Cc1ccc2ccccc2c1)NC(=O)[C@H](Cc1ccc(OCCN)cc1)NC(=O)[C@@H](NC(=O)[C@H](CCC(N)=O)NC(=O)[C@H](Cc1c[nH]c2ccccc12)NC(=O)[C@@H](NC(=O)[C@H](CC(N)=O)NC(=O)[C@@H](NC(C)=O)C(C)(C)S)[C@@H](C)O)C(C)(C)S)C(=O)N[C@@H](CC(N)=O)C(=O)NCCC(N)=O
	< 10	> 6	> 6	COc1ccc(C[C@H](NC(=O)[C@@H](NC(=O)[C@H](CCC(N)=O)NC(=O)[C@H](Cc2c[nH]c3ccccc23)NC(=O)[C@@H](NC(=O)[C@H](CC(N)=O)NC(=O)[C@@H](NC(C)=O)C(C)(C)S)[C@@H](C)O)C(C)(C)S)C(=O)N[C@@H](Cc2ccc3ccccc3c2)C(=O)NC(C)(C)C(=O)N[C@@H](CCCCNC(C)=O)C(=O)N[C@@H](CC(N)=O)C(=O)N[C@@H](CC(N)=O)C(N)=O)cc1
	< 10	> 6	> 6	CC(=O)NCCCC[C@H](NC(=O)C(C)(C)NC(=O)[C@H](Cc1ccc2ccccc2c1)NC(=O)[C@H](Cc1ccc(OCCN)cc1)NC(=O)[C@@H](NC(=O)[C@H](CCC(N)=O)NC(=O)[C@H](Cc1c[nH]c2ccccc12)NC(=O)[C@@H](NC(=O)[C@@H](NC(=O)[C@@H](NC(C)=O)C(C)(C)S)[C@@H](C)O)[C@@H](C)O)C(C)(C)S)C(=O)N[C@@H](CC(N)=O)C(=O)N[C@@H](CC(N)=O)C(N)=O
	< 10	> 6	> 6	CC(=O)NCCCC[C@H](NC(=O)C(C)(C)NC(=O)[C@H](Cc1ccc2ccccc2c1)NC(=O)[C@H](Cc1ccc(OCCN)cc1)NC(=O)[C@@H](NC(=O)[C@H](CCC(N)=O)NC(=O)[C@H](Cc1c[nH]c2ccccc12)NC(=O)[C@@H](NC(=O)[C@H](CC(N)=O)NC(=O)[C@@H](NC(C)=O)C(C)(C)S)[C@@H](C)O)C(C)(C)S)C(=O)N[C@@H](CC(N)=O)C(=O)N[C@@H](CCC(N)=O)C(N)=O
	< 10	> 6	> 6	COc1ccc(C[C@H](NC(=O)[C@@H](NC(=O)[C@H](CCC(N)=O)NC(=O)[C@H](Cc2c[nH]c3ccccc23)NC(=O)[C@@H](NC(=O)[C@H](CC(N)=O)NC(=O)[C@@H](NC(C)=O)C(C)(C)S)[C@@H](C)O)C(C)(C)S)C(=O)N[C@@H](Cc2ccc3ccccc3c2)C(=O)NC(C)(C)C(=O)N[C@@H](CCCCNC(C)=O)C(=O)N[C@@H](CC(N)=O)C(=O)N[C@@H](CCC(N)=O)C(N)=O)cc1
